PubChem BioAssay AID2060502 (Molecular Pharmacology Branch, DTP, NCI, 2025)

Test system: 885724-159-R-J1-PDC complex spheroid viability
Test: Anticancer human tumor 885724-159-R-J1-PDC patient-derived pancreatic adenocarcinoma cell line growth inhibition [GQUAD]
Conditions: for IC50: curve of first compound; for viability, T/C: stronger effect = lower value
How it was run: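 Tumor cells were grown as complex spheroids with HUVEC endothelial cells and mesenchymal stem cells as stroma. G-quadruplex stabilizers were combined with targeted agents over half-log dilutions from near the clinical Cmax, or from 10 microM.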

[1] = second compound 0.0316 µM, first compound 0.0316 µM
[2] = second compound 0.0316 µM, first compound 0.1 µM
[3] = second compound 0.0316 µM, first compound 0.316 µM
[4] = second compound 0.0316 µM, first compound 1 µM
[5] = second compound 0.0316 µM, first compound 3.16 µM
[6] = second compound 0.0316 µM, first compound 10 µM
[7] = second compound 0.1 µM, first compound 0.0316 µM
[8] = second compound 0.1 µM, first compound 0.1 µM
[9] = second compound 0.1 µM, first compound 0.316 µM
[10] = second compound 0.1 µM, first compound 1 µM
[11] = second compound 0.1 µM, first compound 3.16 µM
[12] = second compound 0.1 µM, first compound 10 µM
[13] = second compound 0.316 µM, first compound 0.0316 µM
[14] = second compound 0.316 µM, first compound 0.1 µM
[15] = second compound 0.316 µM, first compound 0.316 µM
[16] = second compound 0.316 µM, first compound 1 µM
[17] = second compound 0.316 µM, first compound 3.16 µM
[18] = second compound 0.316 µM, first compound 10 µM
[19] = second compound 1 µM, first compound 0.0316 µM
[20] = second compound 1 µM, first compound 0.1 µM
[21] = second compound 1 µM, first compound 0.316 µM
[22] = second compound 1 µM, first compound 1 µM
[23] = second compound 1 µM, first compound 3.16 µM
[24] = second compound 1 µM, first compound 10 µM
[25] = second compound 3.16 µM, first compound 0.0316 µM
[26] = second compound 3.16 µM, first compound 0.1 µM
[27] = second compound 3.16 µM, first compound 0.316 µM
[28] = second compound 3.16 µM, first compound 1 µM
[29] = second compound 3.16 µM, first compound 3.16 µM
[30] = second compound 3.16 µM, first compound 10 µM
[31] = second compound 10 µM, first compound 0.0316 µM
[32] = second compound 10 µM, first compound 0.1 µM
[33] = second compound 10 µM, first compound 0.316 µM
[34] = second compound 10 µM, first compound 1 µM
[35] = second compound 10 µM, first compound 3.16 µM
[36] = second compound 10 µM, first compound 10 µM
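Note: spheroids exposed to agents for seven days before readout.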
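Throughout, for viability, T/C: percent of vehicle control viability where 100% = DMSO wells.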

`COc1cccc2c1C(=O)c1c(O)c3c(c(O)c1C2=O)CC(O)(C(=O)CO)CC3OC1CC(N)C(O)C(C)O1` (stereo not drawn) + Cc1[nH]c2ccc(F)cc2c1-c1nc2c3cccnc3c3ncccc3c2[nH]1 showed an IC50 (second compound 0.0316 µM) of 1970 nM, an IC50 (second compound 0.1 µM) of 2290 nM and an IC50 (second compound 0.316 µM) of 2490 nM. For the same compound, the IC50 (second compound 1 µM) was 2530 nM, the IC50 (second compound 3.16 µM) was 37.4 nM and the IC50 (second compound 10 µM) was 2000 nM. The viability, T/C [1] was 104%, the viability, T/C [2] was 98.8% and the viability, T/C [3] was 92%. For the same compound, the viability, T/C [4] was 71.8%, the viability, T/C [5] was 34.8% and the viability, T/C [6] was 5.27%. The viability, T/C [7] was 119%, the viability, T/C [8] was 99.5% and the viability, T/C [9] was 89.2%. The viability, T/C [10] was 74.7%, the viability, T/C [11] was 41% and the viability, T/C [12] was 2.4%. For the same compound, the viability, T/C [13] was 91%, the viability, T/C [14] was 96.2% and the viability, T/C [15] was 86.6%. For the same compound, the viability, T/C [16] was 64%, the viability, T/C [17] was 47.8% and the viability, T/C [18] was 2.12%. For the same compound, the viability, T/C [19] was 78.2%, the viability, T/C [20] was 69.3% and the viability, T/C [21] was 71.5%. The viability, T/C [22] was 61.2%, the viability, T/C [23] was 49% and the viability, T/C [24] was 1.09%. The viability, T/C [25] was 52.8%, the viability, T/C [26] was 43.5% and the viability, T/C [27] was 29.2%. The viability, T/C [28] was 26.4%, the viability, T/C [29] was 22.5% and the viability, T/C [30] was 0.94%. For the same compound, the viability, T/C [31] was 73.3%, the viability, T/C [32] was 64.9% and the viability, T/C [33] was 58.6%. For the same compound, the viability, T/C [34] was 69.5%, the viability, T/C [35] was 39% and the viability, T/C [36] was 1.06%.

With `Nc1ccn(C2OC(CO)C(O)C2(F)F)c(=O)n1` (stereo not drawn) + Cc1[nH]c2ccc(F)cc2c1-c1nc2c3cccnc3c3ncccc3c2[nH]1 the IC50 (second compound 0.0316 µM) was > 10000 nM, the IC50 (second compound 0.1 µM) was > 10000 nM and the IC50 (second compound 0.316 µM) was > 10000 nM. For the same compound, the IC50 (second compound 1 µM) was > 10000 nM, the IC50 (second compound 3.16 µM) was < 31.6 nM and the IC50 (second compound 10 µM) was > 10000 nM. The viability, T/C [1] was 92.8%, the viability, T/C [2] was 100% and the viability, T/C [3] was 75.2%. The viability, T/C [4] was 75.6%, the viability, T/C [5] was 75.3% and the viability, T/C [6] was 80.8%. For the same compound, the viability, T/C [7] was 94.3%, the viability, T/C [8] was 82.2% and the viability, T/C [9] was 71.4%. It also gave a viability, T/C [10] of 79.5%, a viability, T/C [11] of 73.8% and a viability, T/C [12] of 86.6%. The viability, T/C [13] was 93.6%, the viability, T/C [14] was 89.3% and the viability, T/C [15] was 77.3%. It also gave a viability, T/C [16] of 72.2%, a viability, T/C [17] of 79.3% and a viability, T/C [18] of 69.3%. The viability, T/C [19] was 83.3%, the viability, T/C [20] was 67.6% and the viability, T/C [21] was 65.8%. For the same compound, the viability, T/C [22] was 56.6%, the viability, T/C [23] was 70.7% and the viability, T/C [24] was 55%. For the same compound, the viability, T/C [25] was 43.3%, the viability, T/C [26] was 26.1% and the viability, T/C [27] was 28.3%. For the same compound, the viability, T/C [28] was 22.6%, the viability, T/C [29] was 26.1% and the viability, T/C [30] was 20.3%. It also gave a viability, T/C [31] of 67.7%, a viability, T/C [32] of 72.9% and a viability, T/C [33] of 59%. For the same compound, the viability, T/C [34] was 58.4%, the viability, T/C [35] was 61.2% and the viability, T/C [36] was 62%.

For `O=C(NO)c1cnc(N2CCN(S(=O)(=O)c3ccc4ccccc4c3)CC2)nc1` + Cc1[nH]c2ccc(F)cc2c1-c1nc2c3cccnc3c3ncccc3c2[nH]1, the IC50 (second compound 0.0316 µM) was 862 nM, the IC50 (second compound 0.1 µM) was 841 nM and the IC50 (second compound 0.316 µM) was 894 nM. The IC50 (second compound 1 µM) was 706 nM, the IC50 (second compound 3.16 µM) was < 31.6 nM and the IC50 (second compound 10 µM) was 802 nM. For the same compound, the viability, T/C [1] was 101%, the viability, T/C [2] was 96.9% and the viability, T/C [3] was 108%. For the same compound, the viability, T/C [4] was 42.3%, the viability, T/C [5] was 2.03% and the viability, T/C [6] was 0.22%. It also gave a viability, T/C [7] of 101%, a viability, T/C [8] of 106% and a viability, T/C [9] of 82%. For the same compound, the viability, T/C [10] was 47.1%, the viability, T/C [11] was 2.38% and the viability, T/C [12] was 0.21%. The viability, T/C [13] was 90.7%, the viability, T/C [14] was 83% and the viability, T/C [15] was 95.6%. For the same compound, the viability, T/C [16] was 45.7%, the viability, T/C [17] was 3.31% and the viability, T/C [18] was 0.18%. For the same compound, the viability, T/C [19] was 69.2%, the viability, T/C [20] was 55.7% and the viability, T/C [21] was 94.9%. The viability, T/C [22] was 39.9%, the viability, T/C [23] was 2.39% and the viability, T/C [24] was 0.24%. The viability, T/C [25] was 14.8%, the viability, T/C [26] was 18.3% and the viability, T/C [27] was 31.6%. It also gave a viability, T/C [28] of 22.1%, a viability, T/C [29] of 1.99% and a viability, T/C [30] of 0.22%. For the same compound, the viability, T/C [31] was 66.2%, the viability, T/C [32] was 65.6% and the viability, T/C [33] was 74.6%. The viability, T/C [34] was 45.5%, the viability, T/C [35] was 3.66% and the viability, T/C [36] was 0.26%.

For `O=c1[nH]cc(F)c(=O)[nH]1` + Cc1[nH]c2ccc(F)cc2c1-c1nc2c3cccnc3c3ncccc3c2[nH]1, the IC50 (second compound 0.0316 µM) was > 10000 nM, the IC50 (second compound 0.1 µM) was > 10000 nM and the IC50 (second compound 0.316 µM) was > 10000 nM. For the same compound, the IC50 (second compound 1 µM) was > 10000 nM, the IC50 (second compound 3.16 µM) was < 31.6 nM and the IC50 (second compound 10 µM) was > 10000 nM. For the same compound, the viability, T/C [1] was 101%, the viability, T/C [2] was 103% and the viability, T/C [3] was 98.5%. It also gave a viability, T/C [4] of 95.9%, a viability, T/C [5] of 97.1% and a viability, T/C [6] of 86%. The viability, T/C [7] was 103%, the viability, T/C [8] was 89.3% and the viability, T/C [9] was 91%. The viability, T/C [10] was 93.5%, the viability, T/C [11] was 93.7% and the viability, T/C [12] was 86.3%. It also gave a viability, T/C [13] of 107%, a viability, T/C [14] of 94.7% and a viability, T/C [15] of 81.6%. The viability, T/C [16] was 82%, the viability, T/C [17] was 97.5% and the viability, T/C [18] was 95.6%. It also gave a viability, T/C [19] of 76.4%, a viability, T/C [20] of 74.7% and a viability, T/C [21] of 75%. It also gave a viability, T/C [22] of 70.7%, a viability, T/C [23] of 68.3% and a viability, T/C [24] of 69.9%. For the same compound, the viability, T/C [25] was 39.2%, the viability, T/C [26] was 42.6% and the viability, T/C [27] was 41.3%. For the same compound, the viability, T/C [28] was 41.6%, the viability, T/C [29] was 45.1% and the viability, T/C [30] was 42.3%. For the same compound, the viability, T/C [31] was 66.1%, the viability, T/C [32] was 77.2% and the viability, T/C [33] was 70.3%. The viability, T/C [34] was 71.3%, the viability, T/C [35] was 81.3% and the viability, T/C [36] was 62.9%.
